ChEMBL document CHEMBL4385653, “Design, synthesis, biological evaluation of benzoyl amide derivatives containing nitrogen heterocyclic ring as potential VEGFR-2 inhibitors” (Bioorg Med Chem, 2019)
pIC50: −log10 of the molar value.

Columns and labels:
MCF7 [1] = test: Inhibition of cell migration of human MCF7 cells assessed as relative distance between the edges of the wound at 4 uM incubated for 24 hrs by wound healing assay (reference value: 87.55%); assay type: functional; set-up: scale not given: the % may be the effect or the level left
MCF7 [2] = test: Induction of apoptosis in human MCF7 cells assessed as viable cells level at 4 uM incubated for 36 hrs by Annexin V-FITC/PI double staining based flow cytometry analysis (reference value: 89%); assay type: functional
MCF7 [3] = test: Induction of apoptosis in human MCF7 cells assessed as viable cells level at 2 uM incubated for 24 hrs by Annexin V-FITC/PI double staining based flow cytometry analysis (reference value: 82%); assay type: functional
MCF7 [4] = test: Induction of apoptosis in human MCF7 cells assessed as late apoptotic cells level at 2 uM incubated for 24 hrs by Annexin V-FITC/PI double staining based flow cytometry analysis (reference value: 10.1%); assay type: functional
MCF7 [5] = test: Induction of apoptosis in human MCF7 cells incubated for 24 hrs by Annexin V-FITC/PI double staining based flow cytometry analysis; assay type: functional, cell-based
MCF7 [6] = test: Induction of apoptosis in human MCF7 cells assessed as late necrotic cells level at 4 uM incubated for 24 hrs by Annexin V-FITC/PI double staining based flow cytometry analysis (reference value: 1.49%); assay type: functional
MCF7 [7] = test: Induction of apoptosis in human MCF7 cells at 4 uM by Annexin V-FITC/PI double staining based flow cytometry analysis; assay type: functional, cell-based; conditions: TDE = time-dependent effect
MCF7 [8] = test: Induction of apoptosis in human MCF7 cells assessed as early apoptotic cells level at 4 uM incubated for 24 hrs by Annexin V-FITC/PI double staining based flow cytometry analysis (reference value: 1.06%); assay type: functional
HeLa = test: Antiproliferative activity against human HeLa cells assessed as inhibition of cell proliferation incubated for 48 hrs by MTT assay; assay type: functional, cell-based
MCF7 [9] = test: Induction of apoptosis in human MCF7 cells assessed as late necrotic cells level at 4 uM incubated for 12 hrs by Annexin V-FITC/PI double staining based flow cytometry analysis (reference value: 6.88%); assay type: functional

pIC50 (HeLa): 5.34
SMILES: Cc1ccc(-n2cc(NC(=O)c3cccc(NS(=O)(=O)c4ccc(Cl)cc4)c3)cn2)cc1
Activity (MCF7 [1]): 77.3%
Activity (MCF7 [2]): 47.6%
Activity (MCF7 [3]): 70.3%
Activity (MCF7 [4]): 17.7%
Activity (MCF7 [5]): Dose-dependent effect
Activity (MCF7 [6]): 2.62%
Activity (MCF7 [7]): Tde
Activity (MCF7 [8]): 21.6%
Activity (MCF7 [9]): 0.349%
